{"source": "patent US20070099855A1", "about": "(priority 2003, published 2007)", "key": {"in vitro": {"experiment": "in vitro", "settings": "African green monkey"}, "[1]": {"tested_on": "SARS-associated coronavirus", "assay_type": "cell-based", "settings": "added to the culture medium; results not shown"}, "[2]": {"tested_on": "TGEV (Transmissible gastroenteritis Virus)", "experiment": "microbe, parasite or virus in culture", "assay_type": "cell-based"}, "CRFK cells": {"tested_on": "CRFK cells", "settings": "cat"}, "[3]": {"tested_on": "FipV (Feline infectious peritonitis Virus)", "experiment": "microbe, parasite or virus in culture", "assay_type": "cell-based"}, "TGEV": {"tested_on": "TGEV", "assay_type": "cell-based, Transmissible gastroenteritis Virus", "settings": "500 μM"}, "FipV": {"tested_on": "FipV", "assay_type": "cell-based, Feline infectious peritonitis Virus", "settings": "500 μM"}, "[4]": {"tested_on": "SARS-associated coronavirus", "assay_type": "cell-based", "settings": "Vero cells, 72 hours after infection"}, "nitrous oxide synthase": {"tested_on": "nitrous oxide synthase", "assay_type": "cell-based"}, "Vero cells": {"tested_on": "Vero cells", "settings": "African green monkey"}}, "data": [{"smiles": "O=c1cnn([C@@H]2O[C@H](CO)[C@@H](O)[C@H]2O)c(=O)[nH]1", "note": "[Compound 6-azauridine, 6-azauridine]", "values": [{"measurement": "CC50", "setting": "in vitro", "value": 104, "unit": "µg/mL"}]}, {"smiles": "COC(=O)[C@@]1(C)CC[C@]2(C)CC[C@]3(C)C(=CC(=O)C4[C@@]5(C)CCC(OC6OC(C(=O)NN)C(O)C(O)C6OC6OC(C(=O)NN)C(O)C(O)C6O)C(C)(C)C5CC[C@]43C)C2C1", "note": "(stereo partly drawn) [Compound 7]", "values": [{"measurement": "CC50", "setting": "in vitro", "value": 66, "unit": "µM"}]}, {"smiles": "COC(=O)[C@@]1(C)CC[C@]2(C)CC[C@]3(C)C(=CC(=O)C4[C@@]5(C)CCC(OC6OC(CO)C(O)C(O)C6OC6OC(CO)C(O)C(O)C6O)C(C)(C)C5CC[C@]43C)C2C1", "note": "(stereo partly drawn) [Compound 8]", "values": [{"measurement": "CC50", "setting": "in vitro", "value": 44, "unit": "µM"}]}, {"smiles": "NCCN(CCN)/[N+]([O-])=N/O", "note": "[DETANONOate]", "values": [{"measurement": "SARS-associated coronavirus replication", "setting": "[1]", "value": "replication was inhibited"}]}, {"smiles": "CC1(C)C(OC2OC(C(=O)O)C(O)C(O)C2OC2OC(C(=O)O)C(O)C(O)C2O)CC[C@@]2(C)C1CC[C@]1(C)C2C(=O)C=C2C3C[C@@](C)(C(=O)O)CC[C@]3(C)CC[C@]21C.N", "note": "(stereo partly drawn) [Glycyrrhizin Monoammonium Salt]", "values": [{"measurement": "inhibition of CPE, TGEV", "setting": "[2]", "value": "Partial inhibition"}, {"measurement": "EC50", "setting": "[2]; Alphacoronavirus 1, CRFK, 48 h, read-out: EC50, TGEV", "value": "< 500", "unit": "µM"}, {"measurement": "Tox. CRFK cells", "setting": "CRFK cells", "value": ">1", "unit": "mM"}, {"measurement": "inhibition of CPE, FipV", "setting": "[3]", "value": "Partial inhibition"}, {"measurement": "EC50", "setting": "[3]; Alphacoronavirus 1, CRFK, 48 h, read-out: EC50, FipV", "value": "< 500", "unit": "µM"}, {"measurement": "CC50", "setting": "in vitro", "value": 625, "unit": "µM"}]}, {"smiles": "CC1(C)C(OC2OC(C(=O)O)C(O)C(O)C2OC2OC(C(=O)O)C(O)C(O)C2O)CC[C@]2(C)[C@H]3C(=O)C=C4[C@@H]5C[C@@](C)(C(=O)O)CC[C@]5(C)CC[C@@]4(C)[C@]3(C)CC[C@@H]12", "note": "(stereo partly drawn) [Glycyrrhizin, (3-beta,20-beta)-20-Carboxy-11-oxo-30-norolean-12-en-3-yl 2-O-beta-D-glucopyranuronosyl-alpha-D-glucopyranosiduronic acid]", "values": [{"measurement": "virus replication, TGEV", "setting": "TGEV", "value": "significantly reduced"}, {"measurement": "virus replication, FipV", "setting": "FipV", "value": "significantly reduced"}, {"measurement": "expression of viral antigens", "setting": "[4]; 1000 mg/L", "value": "much lower"}, {"measurement": "replication of the virus", "setting": "[4]; 4000 mg/L", "value": "completely blocked replication of the virus"}, {"measurement": "induction of nitrous oxide synthase", "setting": "nitrous oxide synthase", "value": "induced nitrous oxide synthase"}, {"measurement": "CC50", "setting": "in vitro", "value": "> 20000", "unit": "µg/mL"}, {"measurement": "cytotoxicity", "setting": "in vitro", "value": "20 to 30", "unit": "%"}, {"measurement": "CC50", "setting": "Vero cells", "value": ">20,000 mg/L"}]}, {"smiles": "COc1c(C)c2c(c(O)c1C/C=C(\\C)CCC(=O)O)C(=O)OC2", "note": "[Mycophenolic acid]", "values": [{"measurement": "CC50", "setting": "in vitro", "value": "> 50", "unit": "µg/mL"}]}, {"smiles": "NC(=O)c1[nH]nc([C@@H]2O[C@H](CO)[C@@H](O)[C@H]2O)c1O", "note": "[Pyrazofurin]", "values": [{"measurement": "CC50", "setting": "in vitro", "value": 52, "unit": "µg/mL"}]}, {"smiles": "NC(=O)c1ncn([C@@H]2O[C@H](CO)[C@@H](O)[C@H]2O)n1", "note": "[Ribavirin]", "values": [{"measurement": "CC50", "setting": "in vitro", "value": "> 1000", "unit": "µg/mL"}]}]}
